Consider 26 compounds from ChEMBL document CHEMBL1759904, “Synthesis and application of a bromomethyl substituted scaffold to be used for efficient optimization of anti-virulence activity” (Eur J Med Chem, 2011).

Data set [1] has as its system Escherichia coli. In words: Antibacterial activity against Escherichia coli UTI89 assessed as inhibition of biofilm formation after 24 hrs. The format is functional, organism-based. The settings on record: UTI89, 24 h.
Data set [2] relates to Escherichia coli. Kind of data set: Antibacterial activity against Escherichia coli UTI89 assessed as inhibition of biofilm formation at 200 uM after 24 hrs. The class given is functional. As to conditions: for inhibition at 200 µM: UTI89, 24 h.
Data set [3] concerns Escherichia coli. Kind of data set: Antibacterial activity against Escherichia coli UTI89 assessed as number of wells with agglutination by hemagglutinination assay in presence of 500 uM pilicide. The class given is functional.
The test system of another data set is HeLa. Kind of data set: Cytotoxicity against human HeLa cells after 24 hrs by calcein AM based spectrophotometric analysis. The format is cell-based.

Calls of active or inactive are those of the source. The calls are words filed in the database; no cut-off is given here.

The EC50 is the concentration needed to bring the measured effect to its halfway point. As a reminder, the inhibition is the change of the read-out against control, counted positive when it falls. On to `O=C(NCc1cc(=O)n2c(c1-c1cccc(C(F)(F)F)c1)SC[C@H]2C(=O)O)c1cccc2ccccc12`, for which the EC50 with Escherichia coli [1] came to 130 µM. In addition, the inhibition at 200 µM with Escherichia coli [2] is 65%.
On to `O=C(O)[C@@H]1CSc2c(C3CC3)c(CN3CCOCC3)cc(=O)n21`, for which the inhibition entry in the data set with Escherichia coli [2] was “inactive”.
For `O=C(O)[C@@H]1CSc2c(C3CC3)c(COc3ccccc3)cc(=O)n21`, the inhibition at 200 µM in the data set on Escherichia coli [2] is 43%.
Turning to `O=C(NCc1cc(=O)n2c(c1C1CC1)SC[C@H]2C(=O)O)c1ccccc1`, the inhibition entry in the data set with Escherichia coli [2] is “inactive”.
Still for that read-out and setting: as for `O=C(O)[C@@H]1CSc2c(C3CC3)c(CNS(=O)(=O)c3ccccc3)cc(=O)n21`, the entry is “inactive”.
For `O=C(O)[C@@H]1CSc2c(C3CC3)c(Cc3ccc4[nH]ccc4c3)cc(=O)n21`, in the data set on Escherichia coli [2], the inhibition at 200 µM amounted to 37%.
`O=C(O)[C@@H]1CSc2c(-c3cccc(C(F)(F)F)c3)c(Cc3ccc4[nH]ccc4c3)cc(=O)n21`: the EC50 with Escherichia coli [1] came to 30 µM. For the same compound, the Activity in the data set with Escherichia coli [3] was 5; in the data set with HeLa, “Non-toxic”. The inhibition at 200 µM in the data set on Escherichia coli [2] came out at 97%.
Regarding `O=C(O)[C@@H]1CSc2c(-c3cccc(C(F)(F)F)c3)c(CN3CCOCC3)cc(=O)n21`, in the data set with Escherichia coli [2], the inhibition entry was “inactive”.
For `O=C(O)[C@@H]1CSc2c(-c3cccc(C(F)(F)F)c3)c(CN3CCc4ccccc4C3)cc(=O)n21`, the EC50 in the data set on Escherichia coli [1] amounted to 130 µM. Besides, the inhibition at 200 µM in the data set on Escherichia coli [2] turned out to be 84%.
In the case of `O=C(O)[C@@H]1CSc2c(C3CC3)c(Cc3cccc(OCc4ccc(F)cc4)c3)cc(=O)n21`, the EC50 in the data set with Escherichia coli [1] stood at 43 µM. The inhibition at 200 µM with Escherichia coli [2] was 76%. In the data set with HeLa, the Activity entry is on record as “Non-toxic”.
As to `COc1ccc2cc(Cc3cc(=O)n4c(c3C3CC3)SC[C@H]4C(=O)O)ccc2c1`, the inhibition result with Escherichia coli [2] is “inactive”.
Still for that read-out and setting: the result for `O=C(O)[C@@H]1CSc2c(C3CC3)c(CN3CCCCC3)cc(=O)n21` reads “inactive”; that for `O=C(NCc1cc(=O)n2c(c1-c1cccc(C(F)(F)F)c1)SC[C@H]2C(=O)O)c1ccccc1`, “inactive”.
`O=C(O)[C@@H]1CSc2c(-c3cccc(C(F)(F)F)c3)c(Cc3cccc(OCc4ccc(F)cc4)c3)cc(=O)n21`: the EC50 in the data set with Escherichia coli [1] was determined as 3 µM. For the same compound, the inhibition at 200 µM in the data set with Escherichia coli [2] stood at 75%. For the same compound, the Activity entry in the data set with HeLa is “Non-toxic”.
Consider `O=C(O)[C@@H]1CSc2c(-c3cccc(C(F)(F)F)c3)c(Cc3cccc4ccccc34)cc(=O)n21`, for which, in the data set with Escherichia coli [1], the EC50 came out at 17 µM. Further, the Activity with Escherichia coli [3] is recorded as 5; in the data set on HeLa it was “Non-toxic”. The inhibition at 200 µM in the data set on Escherichia coli [2] was determined as 92%.
On the same counts, the results for `COc1ccc2cc(Cc3cc(=O)n4c(c3-c3cccc(C(F)(F)F)c3)SC[C@H]4C(=O)O)ccc2c1` are 9 µM, 5.5, “Non-toxic” and 93%.
Consider `O=C(O)[C@@H]1CSc2c(C3CC3)c(CNS(=O)(=O)c3cccc4ccccc34)cc(=O)n21`, for which the inhibition result in the data set on Escherichia coli [2] is “inactive”.
Regarding `O=C(O)[C@@H]1CSc2c(-c3cccc(C(F)(F)F)c3)c(CN3CCCCC3)cc(=O)n21`, the inhibition at 200 µM with Escherichia coli [2] was found to be 30%.
Regarding `O=C(O)[C@@H]1CSc2c(-c3cccc(C(F)(F)F)c3)c(COc3ccccc3)cc(=O)n21`, in the data set on Escherichia coli [1], the half-maximal effective concentration (EC50) worked out at 21 µM. Also, the inhibition at 200 µM in the data set with Escherichia coli [2] was found to be 80%. In addition, in the data set with HeLa, the Activity entry is recorded as “Non-toxic”.
As to `O=C(O)[C@@H]1CSc2c(-c3cccc(C(F)(F)F)c3)c(CNS(=O)(=O)c3ccccc3)cc(=O)n21`, in the data set on Escherichia coli [2], the inhibition at 200 µM worked out at 48%.
On to `O=C(O)[C@@H]1CSc2c(C3CC3)c(Cc3cccc4ccccc34)cc(=O)n21`, for which, in the data set with Escherichia coli [1], the EC50 turned out to be 189 µM. For the same compound, the values for the Activity in the data set with Escherichia coli [3] and in the data set with HeLa were 7 and “Non-toxic”, respectively. In the data set with Escherichia coli [2], the inhibition at 200 µM came to 54%.
For `O=C(O)[C@@H]1CSc2c(C3CC3)c(CN3CCc4ccccc4C3)cc(=O)n21`, the inhibition result in the data set on Escherichia coli [2] is “inactive”.
Take `O=C(O)[C@@H]1CSc2c(C3CC3)c(COc3cccc4ccccc34)cc(=O)n21`: in the data set on Escherichia coli [1], the EC50 turned out to be 32 µM. Besides, the Activity in the data set with Escherichia coli [3] is 5.5; in the data set on HeLa it was “Non-toxic”. Besides, in the data set with Escherichia coli [2], the inhibition at 200 µM stood at 96%.
The corresponding values for `O=C(O)[C@@H]1CSc2c(-c3cccc(C(F)(F)F)c3)c(COc3cccc4ccccc34)cc(=O)n21` are 37 µM, 5, “Non-toxic” and 72%.
With `O=C(NCc1cc(=O)n2c(c1C1CC1)SC[C@H]2C(=O)O)c1cccc2ccccc12`, the inhibition result in the data set on Escherichia coli [2] is “inactive”.
As to `O=C(O)[C@@H]1CSc2c(-c3cccc(C(F)(F)F)c3)c(CNS(=O)(=O)c3cccc4ccccc34)cc(=O)n21`, the 50% effective concentration (EC50) in the data set on Escherichia coli [1] was 38 µM. Further, in the data set on Escherichia coli [2], the inhibition at 200 µM amounted to 91%. In addition, in the data set with HeLa, the Activity entry is recorded as “Non-toxic”.
